Measurements taken from article PMC6632053, “Incorporation of Putative Helix-Breaking Amino Acids in the Design of Novel Stapled Peptides: Exploring Biophysical and Cellular Permeability Properties” (Molecules, 2019).
Read-outs that look alike come from different tables or passages of the source.

Legend:
[1] = biological target: T1, biotinylated Mdm2 (Homo sapiens, UniProt Q00987); assay: Surface plasmon resonance (SPR); format: binding; details: Figure 2A right panel, 25 °C
T1 construct: made in house
T1 sequence (Q00987 whole entry): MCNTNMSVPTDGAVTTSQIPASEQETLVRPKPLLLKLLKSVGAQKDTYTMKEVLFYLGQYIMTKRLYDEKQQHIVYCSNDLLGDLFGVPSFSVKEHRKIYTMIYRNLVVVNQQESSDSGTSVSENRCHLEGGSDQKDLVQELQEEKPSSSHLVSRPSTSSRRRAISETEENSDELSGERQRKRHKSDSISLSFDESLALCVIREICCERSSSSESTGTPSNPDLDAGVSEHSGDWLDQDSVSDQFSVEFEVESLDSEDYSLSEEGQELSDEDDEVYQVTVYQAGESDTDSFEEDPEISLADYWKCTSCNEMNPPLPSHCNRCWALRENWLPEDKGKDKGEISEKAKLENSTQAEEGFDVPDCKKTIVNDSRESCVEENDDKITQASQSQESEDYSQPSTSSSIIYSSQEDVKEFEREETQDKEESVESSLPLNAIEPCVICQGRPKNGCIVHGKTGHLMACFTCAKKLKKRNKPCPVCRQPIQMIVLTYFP
Experimental: SPR experiments were performed with Biacore T100 (GE Healthcare) at 25 °C. […] The SPR buffer consisted of 50 mM Tris pH 7.4, 150 mM NaCl, 1 mM DTT, 0.05% Tween 20, and 3% DMSO. The CM5 chip was first conditioned with 100 mM HCl, followed by 0.1% SDS, 50 mM NaOH, and then water, all performed twice with 6 sec injection at a flow rate of 100 µL/min. With the flow rate set to 10 µL/min, streptavidin (S4762, Sigma-Aldrich) was immobilized on the conditioned chip through amine coupling, as described in the Biacore manual. Excess protein was removed by 30 s injection of the wash solution (50 mM NaOH + 1 M NaCl) at least eight times. The immobilized level was ~3000 RU. The biotinylated Mdm2 was captured by streptavidin, up to a level of ~400 RU. A flow cell consisting of only streptavidin was used as the reference surface. Using a flow rate of 30 µL/min, peptides dissolved in the SPR buffer were injected for 180 s. The dissociation was monitored for 300 s. […] After the run, responses from the target protein surface were transformed by: (i) correcting with the DMSO calibration curve, (ii) subtracting the responses obtained from the reference surface, and (iii) subtracting the responses of the buffer injections from those of peptide injections. The last step is known as double referencing, which corrects the systematic artefacts. […]

[2] = biological target: T2, human Mdm2 1–125 (Homo sapiens, UniProt Q00987); assay: Mdm2 binding assay (competitive fluorescence anisotropy/polarization); details: Table 1; competitive fluorescence polarization; read-out: Mdm2 (nM), Mdm2 binding (Kd)
T2 construct: GST (N); His6 (internal); TEV cleavage site ENLYFQG (internal); made in house; host or cells: Escherichia coli BL21 (DE3) Rosetta T1R
T2 sequence (Q00987 with tags, fused parts or gaps): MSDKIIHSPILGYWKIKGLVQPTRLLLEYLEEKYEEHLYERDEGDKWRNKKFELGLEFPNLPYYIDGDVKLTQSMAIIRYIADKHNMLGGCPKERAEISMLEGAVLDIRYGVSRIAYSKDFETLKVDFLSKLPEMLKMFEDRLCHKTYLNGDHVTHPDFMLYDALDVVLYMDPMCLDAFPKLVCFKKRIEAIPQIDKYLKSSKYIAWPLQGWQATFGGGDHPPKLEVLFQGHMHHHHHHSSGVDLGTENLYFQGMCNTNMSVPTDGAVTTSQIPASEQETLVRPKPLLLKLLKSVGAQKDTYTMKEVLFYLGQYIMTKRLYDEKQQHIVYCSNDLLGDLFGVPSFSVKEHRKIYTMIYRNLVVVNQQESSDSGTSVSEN

[3] = Whole cell homogenate stability; format: in vitro ADME; details: 1 μM peptide, 37 °C, up to 22 h
Experimental: Peptides at a concentration of 1 μM were incubated at 37 °C with HCT116 whole cell homogenates prepared from 1 million lysed cells/mL. The reaction was stopped at 0, 1, 2, 4, and 22 h with an organic solvent followed by centrifugation. The resulting supernatant was injected into LC/MS for detection of the tested peptide. The remaining percentage of each compound was normalized to the 0 h amount and reported. As a positive control, we used the ONEG peptide with the sequence […] [28].

[4] = biological target: T3, recombinant human Mdm2 protein (amino acids 1–125) (Homo sapiens, UniProt Q00987); assay: Isothermal titration calorimetry (ITC); format: binding; details: Figure 2A middle panel
T3 construct: purified recombinant human Mdm2 protein (amino acids 1–125); made in house
T3 sequence (Q00987 1-125): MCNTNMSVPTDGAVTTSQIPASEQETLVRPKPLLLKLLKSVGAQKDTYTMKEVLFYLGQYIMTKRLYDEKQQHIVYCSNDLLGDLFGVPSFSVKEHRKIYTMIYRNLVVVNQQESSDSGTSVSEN
Experimental: Overnight dialysis of protein and peptides were carried out in buffer containing 1× phosphate-buffered saline (PBS) pH 7.2, 3% DMSO, and 0.001% Tween-20. […] Reverse ITC (200 µM of Mdm2 protein titrated into 20 µM of peptide) was carried out for peptides that are insoluble at high concentrations. All experiments were performed in duplicates using the MicroCal PEAQ-ITC Automated system. Data analysis was carried out using the MicroCal PEAQ-ITC Analysis Software.

[5] = Lactate dehydrogenase (LDH) release assay; format: cell-based; details: membrane integrity, HCT116
Experimental: HCT116 cells were seeded into a 384-well plate at a density of 8000 cells per well. Cells were maintained in McCoy’s 5A Medium with 10% fetal bovine serum (FBS), Blasticidin, and Penicillin/Streptomycin. The cells were incubated overnight, followed by the removal of cell media and the addition of Opti-MEM Medium without FBS. Cells were then treated with peptides for 4 or 16 h in Opti-MEM, either in 10% FBS or in serum free conditions. The final concentration of DMSO was 0.5%. Lactate dehydrogenase release was detected using the CytoTox-ONE Homogenous Membrane Integrity Assay Kit (Promega), as per the manufacturer’s instructions. Measurements were carried out using the Tecan plate reader. Maximum LDH release was defined as the amount of LDH released as induced by the lytic peptide (iDNA79) and used to normalize the results.

[6] = Circular dichroism (CD) α-helicity; format: physicochemical; details: Table 1; CD of free peptide, 25 °C, 1 mM Hepes pH 7.4, 5% methanol
How it was run: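 Peptide dried from methanol, reconstituted to 1 mM in 1 mM Hepes pH 7.4 with 5% methanol; concentration by A280. CD spectra 300–190 nm, 0.2 cm path, 25 °C, duplicates; converted to mean residue ellipticity and deconvoluted for secondary structure.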

[7] = system: p53 responsive β-lactamase reporter in HCT116 cells; assay: p53 beta-lactamase reporter gene cellular functional assay; format: cell-based
How it was run: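 HCT116 cells stably carrying a p53-responsive β-lactamase reporter seeded 8000/well overnight, then switched to Opti-MEM with 0% or 10% FBS for compound treatment at 0.5% DMSO final. β-Lactamase activity measured with ToxBLAzer Dual Screen on a multiplate reader.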

## CC(=O)N[C@@H](CC(C)C)C(=O)N[C@H](C(=O)N[C@@H](Cc1ccccc1)C(=O)N[C@]1(C)CCCCCCC=CCCC[C@@](C)(C(=O)N[C@@H](CO)C(=O)N[C@@H](C)C(=O)N[C@@H](C)C(N)=O)NC(=O)[C@H](CC2CCC2)NC(=O)[C@H](CC(C)C)NC(=O)[C@H](CCC(N)=O)NC(=O)[C@H](Cc2c[nH]c3ccccc23)NC(=O)[C@H](Cc2ccc(O)cc2)NC(=O)[C@H](CCC(=O)O)NC1=O)[C@@H](C)O [MP-292]
[1]
  Kd: 1.4 nM
[2]
  Kd: 18.6 nM
[3]
  stability in whole cell homogenate: minimal degradation
[4]
  Kd: < 20 nM
[5]
  EC50: > 50000 nM
[6]
  Helicity (%): 32.8%
[7]; 0% serum, read-out: p53 reporter assay EC50
  EC50: 0.5 µM
[7]; 2% serum, read-out: p53 reporter assay EC50
  EC50: 0.7 µM
[7]; 10% serum, read-out: p53 reporter assay EC50
  EC50: 4.2 µM
[7]; Table 1, p53 reporter assay, HCT116, read-out: Cellular (µM), cellular activity (EC50)
  EC50: 0.54 µM
